BigSolDB 2.1

Nc1ccc(S(=O)(=O)Nc2ncccn2)cc1
solubility (mole fraction)
Conditions | 278.15 K | 283.15 K | 288.15 K | 293.15 K | 298.15 K | 303.15 K | 308.15 K | 313.15 K | 318.15 K
in ethylene glycol | 0.00034 | 0.000379 | 0.000413 | 0.00047 | 0.000532 | 0.000575 | 0.000637 | 0.000694 | 0.000752
in water | 1.61e-06 | 2.01e-06 | 2.86e-06 | 3.8e-06 | 4.81e-06 | 6.49e-06 | 8.69e-06 | 1.14e-05 | 1.22e-05
